From patent publication US9695168B2 (Incyte Corporation, priority 2014, dated 2017)

Biological target: LSD1 (Homo sapiens (Human), UniProt O60341)
Assay: LSD1 Histone Demethylase Biochemical Assay (LANCE LSD1/KDM1A demethylase assay)
Details: 1 nM LSD-1 enzyme, 1 hour preincubation at 25° C., 0.4 μM Biotin-labeled Histone H3 peptide substrate
Experimental: LSD1 Histone Demethylase Biochemical Assay
LANCE LSD1/KDM1A demethylase assay-10 μL of 1 nM LSD-1 enzyme (ENZO BML-SE544-0050) in the assay buffer (50 mM Tris, pH 7.5, 0.01% Tween-20, 25 mM NaCl, 5 mM DTT) were preincubated for 1 hour at 25° C. with 0.8 μL compound/DMSO dotted in black 384 well polystyrene plates. […] Reactions were stopped by addition of 10 μL 1× LANCE Detection Buffer (PerkinElmer CR97-100) supplemented with 1.5 nM Eu-anti-unmodified H3K4 Antibody (PerkinElmer TRF0404), and 225 nM LANCE Ultra Streptavidin (PerkinElmer TRF102) along with 0.9 mM Tranylcypromine-HCl (Millipore 616431). After stopping the reactions plates were incubated for 30 minutes and read on a PHERAstar FS plate reader (BMG Labtech).

For `Cc1ccc(-c2c(-c3ccc(F)cc3)cc(OC[C@@H]3CCNC3)c3cncn23)cc1` [Example 2, 6-(4-fluorophenyl)-5-(4-methylphenyl)-8-[(3R)-pyrrolidin-3-ylmethoxy]imidazo[1,5-a]pyridine], which IC50 is on record?
The IC50 was 500 to 1000 nM.

With `N#Cc1ccc(-c2cc(OC[C@@H]3CCNC3)c3cncn3c2-c2ccc(Cl)cc2)cc1` [Example 6, 4-{5-(4-chlorophenyl)-8-[(3R)-pyrrolidin-3-ylmethoxy]imidazo[1,5-a]pyridin-6-yl}benzonitrile] as the compound, how does the IC50 read?
The IC50 was 50 to 100 nM.

How did the IC50 turn out when `N#Cc1ccc(-c2cc(OC[C@@H]3CCNC3)c3cncn3c2-c2cnn(C3CCC3)c2)cc1` [Example 7, 4-{5-(1-cyclobutyl-1H-pyrazol-4-yl)-8-[(3R)-pyrrolidin-3-ylmethoxy]imidazo[1,5-a]pyridin-6-yl}benzonitrile] was run?
The IC50 was 50 to 100 nM.

With `CC(C)(C)OC(=O)N1CC=C(c2c(-c3ccc(C#N)cc3)cc(OC[C@@H]3CCNC3)c3cncn23)CC1` [Example 10, tert-butyl 4-{6-(4-cyanophenyl)-8-[(3R)-pyrrolidin-3-ylmethoxy]imidazo[1,5-a]pyridin-5-yl}-3,6-dihydropyridine-1(2H)-carboxylate] as the compound, how does the IC50 read?
The IC50 was 100 to 500 nM.

How did the IC50 turn out when `N#Cc1ccc(-c2cc(OC[C@@H]3CCNC3)c3cncn3c2-c2ccc(N3CCOCC3)cc2)cc1` [Example 13, 4-{5-(4-morpholin-4-ylphenyl)-8-[(3R)-pyrrolidin-3-ylmethoxy]imidazo[1,5-a]pyridin-6-yl}benzonitrile] was run?
Its IC50 is 50 to 100 nM.

Which IC50 does the source give for `N#Cc1ccc(-c2cc(OC[C@@H]3CCNC3)c3cncn3c2-c2ccc(CN3CCOCC3)cc2)cc1` [Example 17, 4-{5-[4-(morpholin-4-ylmethyl)phenyl]-8-[(3R)-pyrrolidin-3-ylmethoxy]imidazo[1,5-a]pyridin-6-yl}benzonitrile] here?
The IC50 was 50 to 100 nM.

For `CN1CCC[C@@H](COc2nc(-c3ccc(C#N)cc3)c(-c3ccc4c(c3)oc(=O)n4C)n3cncc23)C1` [Example 21, 4-(5-(3-methyl-2-oxo-2,3-dihydro-1,3-benzoxazol-6-yl)-8-{[(3R)-1-methylpiperidin-3-yl]methoxy}imidazo[1,5-a]pyrazin-6-yl)benzonitrile], which IC50 is on record?
The IC50 was 50 to 100 nM.

For `CN1CCC[C@@H](COc2nc(-c3ccc(C#N)cc3)c(-c3ccc4c(c3)CC(=O)N4C)n3cncc23)C1` [Example 22, 4-(5-(1-methyl-2-oxo-2,3-dihydro-1H-indol-5-yl)-8-{[(3R)-1-methylpiperidin-3-yl]methoxy}imidazo[1,5-a]pyrazin-6-yl)benzonitrile], which IC50 is on record?
The IC50 was 100 to 500 nM.

Which IC50 does the source give for `CN1CCC[C@@H](COc2nc(-c3ccc(C#N)cc3)c(-c3ccc4c(c3)CCC(=O)N4C)n3cncc23)C1` [Example 24, 4-(5-(1-methyl-2-oxo-1,2,3,4-tetrahydroquinolin-6-yl)-8-{[(3R)-1-methylpiperidin-3-yl]methoxy}imidazo[1,5-a]pyrazin-6-yl)benzonitrile] here?
The IC50 was 100 to 500 nM.

`CN1CCC[C@@H](COc2nc(-c3ccc(C#N)cc3)c(-c3ccc4c(c3)OCC(=O)N4C)n3cncc23)C1` [Example 25, 4-(5-(4-methyl-3-oxo-3,4-dihydro-2H-1,4-benzoxazin-7-yl)-8-{[(3R)-1-methylpiperidin-3-yl]methoxy}imidazo[1,5-a]pyrazin-6-yl)benzonitrile] was tested. Which IC50 did it give?
Its IC50 is 50 to 100 nM.

With `CN1CCC[C@@H](COc2nc(-c3ccc(C#N)cc3)c(-c3ccc4c(c3)n(C)c(=O)n4C)n3cncc23)C1` [Example 26, 4-(5-(1,3-dimethyl-2-oxo-2,3-dihydro-1H-benzimidazol-5-yl)-8-{[(3R)-1-methylpiperidin-3-yl]methoxy}imidazo[1,5-a]pyrazin-6-yl)benzonitrile] as the compound, how does the IC50 read?
Its IC50 is 100 to 500 nM.

How did the IC50 turn out when `CN1CCC[C@@H](COc2nc(-c3ccc(C#N)cc3)c(-c3cnc4c(cnn4C)c3)n3cncc23)C1` [Example 27, 4-[8-{[(3R)-1-methylpiperidin-3-yl]methoxy}-5-(1-methyl-1H-pyrazolo[3,4-b]pyridin-5-yl)imidazo[1,5-a]pyrazin-6-yl]benzonitrile] was run?
The IC50 was 50 to 100 nM.

With `CN1CCC[C@@H](COc2nc(-c3ccc(C#N)cc3)c(-c3ccc4ncccc4c3)n3cncc23)C1` [Example 31, 4-(8-{[(3R)-1-methylpiperidin-3-yl]methoxy}-5-quinolin-6-ylimidazo[1,5-a]pyrazin-6-yl)benzonitrile] as the compound, how does the IC50 read?
The IC50 was 50 to 100 nM.

How did the IC50 turn out when `Cc1nn(C)c2ccc(-c3c(-c4ccc(C#N)cc4)nc(OC[C@@H]4CCCN(C)C4)c4cncn34)cc12` [Example 32, 4-(5-(1,3-dimethyl-1H-indazol-5-yl)-8-{[(3R)-1-methylpiperidin-3-yl]methoxy}imidazo[1,5-a]pyrazin-6-yl)benzonitrile] was run?
Its IC50 is 50 to 100 nM.

With `CN1CCC[C@@H](COc2nc(-c3ccc(C#N)cc3)c(-c3ccc4ncsc4c3)n3cncc23)C1` [Example 33, 4-(5-(1,3-benzothiazol-6-yl)-8-{[(3R)-1-methylpiperidin-3-yl]methoxy}imidazo[1,5-a]pyrazin-6-yl)benzonitrile] as the compound, how does the IC50 read?
Its IC50 is 50 to 100 nM.

How did the IC50 turn out when `CC(O)CN1CCC[C@@H](COc2nc(-c3ccc(C#N)cc3)c(-c3cnc4c(cnn4C)c3)n3cncc23)C1` (stereo partly drawn) [Example 39, 4-[8-{[(3R)-1-(2-hydroxypropyl)piperidin-3-yl]methoxy}-5-(1-methyl-1H-pyrazolo[3,4-b]pyridin-5-yl)imidazo[1,5-a]pyrazin-6-yl]benzonitrile] was run?
Its IC50 is 100 to 500 nM.

How did the IC50 turn out when `Cn1ncc2cc(-c3c(-c4ccc(C#N)cc4)nc(OC[C@@H]4CCCN(CC(C)(C)O)C4)c4cncn34)cnc21` [Example 41, 4-[8-{[(3R)-1-(2-hydroxy-2-methylpropyl)piperidin-3-yl]methoxy}-5-(1-methyl-1H-pyrazolo[3,4-b]pyridin-5-yl)imidazo[1,5-a]pyrazin-6-yl]benzonitrile] was run?
The IC50 was 50 to 100 nM.

For `COC(=O)N(C)c1ccc(-c2c(-c3ccc(C#N)cc3)nc(OC[C@@H]3CCCN(C)C3)c3cncn23)cc1` [Example 46], which IC50 is on record?
Its IC50 is 50 to 100 nM.

`COC(=O)N(C)c1ccc(-c2c(-c3ccc(C#N)cc3)nc(OC[C@@H]3CCCN(C)C3)c3cncn23)cn1` [Example 49] was tested. Which IC50 did it give?
Its IC50 is 100 to 500 nM.

For `CN1C(=O)Cc2cc(-c3c(-c4ccc(C#N)cc4)nc(N4CCC(N(C)C)CC4)c4cncn34)ccc21` [Example 52, 4-[8-[4-(dimethylamino)piperidin-1-yl]-5-(1-methyl-2-oxo-2,3-dihydro-1H-indol-5-yl)imidazo[1,5-a]pyrazin-6-yl]benzonitrile], which IC50 is on record?
Its IC50 is 50 to 100 nM.

How did the IC50 turn out when `CN(C)C1CCN(c2nc(-c3ccc(C#N)cc3)c(-c3cnc4cccnc4c3)n3cncc23)CC1` [Example 55, 4-[8-[4-(dimethylamino)piperidin-1-yl]-5-(1,5-naphthyridin-3-yl)imidazo[1,5-a]pyrazin-6-yl]benzonitrile] was run?
Its IC50 is 50 to 100 nM.

`CN1CCC[C@@H](COc2cc(-c3ccc(C#N)cc3)c(-c3cnc4cccnc4c3)n3cncc23)C1` [Example 59, (R)-4-(8-((1-methylpiperidin-3-yl)methoxy)-5-(1,5-naphthyridin-3-yl)imidazo[1,5-a]pyridin-6-yl)benzonitrile] was tested. Which IC50 did it give?
The IC50 was 100 to 500 nM.

How did the IC50 turn out when `CN1CCC[C@@H](COc2cc(-c3ccc(C#N)cc3)c(-c3cnc4ccoc4c3)n3cncc23)C1` [Example 60, (R)-4-(5-(furo[3,2-b]pyridin-6-yl)-8-((1-methylpiperidin-3-yl)methoxy)imidazo[1,5-a]pyridin-6-yl)benzonitrile] was run?
Its IC50 is 50 to 100 nM.

With `CN1CCC[C@@H](COc2cc(-c3ccc(C#N)cc3)c(-c3cnc4c(c3)CCCO4)n3cncc23)C1` [Example 61, (R)-4-(5-(3,4-dihydro-2H-pyrano[2,3-b]pyridin-6-yl)-8-((1-methylpiperidin-3-yl)methoxy)imidazo[1,5-a]pyridin-6-yl)benzonitrile] as the compound, how does the IC50 read?
The IC50 was 50 to 100 nM.

With `CCN1CCC[C@@H](COc2cc(-c3ccc(C#N)cc3)c(-c3cnc4c(c3)ncn4C)n3cncc23)C1` [Example 66, (R)-4-(8-((1-ethylpiperidin-3-yl)methoxy)-5-(3-methyl-3H-imidazo[4,5-b]pyridin-6-yl)imidazo[1,5-a]pyridin-6-yl)benzonitrile] as the compound, how does the IC50 read?
Its IC50 is 50 to 100 nM.

`CCN1CCC[C@@H](COc2cc(-c3ccc(C#N)cc3)c(-c3cnc4c(c3)CCCO4)n3cncc23)C1` [Example 68, (R)-4-(5-(3,4-dihydro-2H-pyrano[2,3-b]pyridin-6-yl)-8-((1-ethylpiperidin-3-yl)methoxy)imidazo[1,5-a]pyridin-6-yl)benzonitrile] was tested. Which IC50 did it give?
Its IC50 is 50 to 100 nM.

Which IC50 does the source give for `COc1ncc(-c2c(-c3ccc(C#N)cc3)cc(OC[C@@H]3CCCN(C)C3)c3cncn23)cc1N` [Example 69, (R)-4-(5-(5-amino-6-methoxypyridin-3-yl)-8-((1-methylpiperidin-3-yl)methoxy)imidazo[1,5-a]pyridin-6-yl)benzonitrile] here?
The IC50 was 50 to 100 nM.

For `Cc1ncc(-c2c(-c3ccc(C#N)cc3)nc(OC[C@@H]3CCCN(C)C3)c3cncn23)cc1F` [Example 88, 4-(5-(5-fluoro-6-methylpyridin-3-yl)-8-{[(3R)-1-methylpiperidin-3-yl]methoxy}imidazo[1,5-a]pyrazin-6-yl)benzonitrile], which IC50 is on record?
The IC50 was 50 to 100 nM.

For `CN(C)C1CCN(c2nc(-c3ccc(C#N)cc3)c(-c3cnc4ccoc4c3)n3cncc23)CC1` [Example 104, 4-(8-(4-(dimethylamino)piperidin-1-yl)-5-(furo[3,2-b]pyridin-6-yl)imidazo[1,5-a]pyrazin-6-yl)benzonitrile], which IC50 is on record?
Its IC50 is 50 to 100 nM.

How did the IC50 turn out when `CCN1CCC[C@@H](COc2nc(-c3ccc(C#N)cc3)c(-c3ccc4c(c3)CC(=O)N4C)n3cncc23)C1` [Example 110, 4-[8-{[(3R)-1-ethylpiperidin-3-yl]methoxy}-5-(1-methyl-2-oxo-2,3-dihydro-1H-indol-5-yl)imidazo[1,5-a]pyrazin-6-yl]benzonitrile] was run?
Its IC50 is 50 to 100 nM.
